In patent US5104814A, “Assay kit and methods for neuroleptic drugs” (Schering Corporation, priority 1990, dated 1992):
pKi: −log10 of the molar value.

Experiments:
D-1 receptor [1] = target: T1, D-1 receptor (Rattus norvegicus, UniProt P18901); experiment: Competition binding with [N-methyl-^3 H] Compound as radioligand in rat striatal tissue; settings: rat striatum, radioligand 1.0 nM; read-out: KI, inhibition of binding of the labelled Compound
T1 construct: Striatal tissue was excised, pooled, and homogenized; from tissue; host or cells: striatum of male Sprague-Dawley rats, homogenized and washed by centrifugation
Experimental: (§1) Male Sprague-Dawley rats (200 to 250 g) from Charles River Breeding Laboratories, Mass. were used to obtain brain tissue. The rats were decapitated, their brains removed and placed on ice. Striatal tissue was excised, pooled, and homogenized (Brinkman Polytron, 10 sec) in 100 volumes (v/v) of ice cold 50mM Tris-HCl buffer, pH 7.4 (at 25° C.). The homogenate was centrifuged at 20,000×g for 10 min. The resultant pellet was rehomogenized in Tris-HCl buffer and centrifuged again. The final pellet was resuspended in 50 mM Tris-HCl buffer pH 7.4 containing 120 mM NaCl, 5 mM KCL, 2 mM CaCl2, and 1 mM MgCl2.
To test the receptor specificity of [N-methyl-^3 H]

D-1 receptor [2] = target: T1, D-1 receptor; experiment: Saturation binding of [N-methyl-^3 H] Compound in rat striatum; settings: binding as a function of radioligand concentration, 25 min
Experimental: as §1

rat striatal membranes = experiment: In vivo labeling of rat striatal membranes by [N-methyl-^3 H] Compound after subcutaneous injection
[3] = Recovery of radioactivity from polypropylene assay tubes (adsorption onto surfaces); type: physicochemical; settings: polypropylene tubes used in these experiments
dopamine D-1 receptors = settings: J. Pharmacol. Exp. Ther., 226: 462 (1983); cited from earlier work

T1 sequence (P18901 whole entry): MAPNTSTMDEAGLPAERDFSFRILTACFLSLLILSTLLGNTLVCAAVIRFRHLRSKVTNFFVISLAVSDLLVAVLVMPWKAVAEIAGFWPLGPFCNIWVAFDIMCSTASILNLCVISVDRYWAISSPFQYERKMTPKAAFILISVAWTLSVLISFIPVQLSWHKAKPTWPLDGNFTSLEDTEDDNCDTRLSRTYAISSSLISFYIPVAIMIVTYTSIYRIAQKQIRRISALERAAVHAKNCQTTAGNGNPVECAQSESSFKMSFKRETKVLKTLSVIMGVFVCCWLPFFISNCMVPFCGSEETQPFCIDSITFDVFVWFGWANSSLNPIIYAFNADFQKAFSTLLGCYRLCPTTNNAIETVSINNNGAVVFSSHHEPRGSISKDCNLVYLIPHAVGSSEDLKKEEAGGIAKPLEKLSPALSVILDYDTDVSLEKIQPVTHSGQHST

CN1CCc2cc(Cl)c(O)cc2[C@H]2c3ccccc3CC[C@@H]21 [Compound, [-]trans 6,7,7a,8,9,13b-hexahydro-3-chloro-2-hydroxy-N-methyl-5H-benzo[d]naphtho[2,1-b]-azepine]
pKi (D-1 receptor [1]): 8.44

[3H]C([3H])([3H])N1CCc2cc(Cl)c(O)cc2C2c3ccccc3CCC21 (stereo not drawn) [[N-methyl-^3 H] Compound]
KD (disassociation constant) (D-1 receptor [2]): 1.7 nM | time of optimal binding after subcutaneous injection (rat striatal membranes; subcutaneous, striatal membranes): 1 h | recoverable radioactivity from the polypropylene tubes [3]: 97%

CN1CCc2cc(Cl)c(O)cc2[C@@H](c2ccccc2)C1 [R-(+)-8-chloro-2,3,4,5-tetrahydro-3-methyl-5-phenyl-1H-3-benzazepine-7-ol, reference compound]
inhibition of striatal binding of [N-methyl-^3 H] Compound in vivo (rat striatal membranes; 1 umole of inhibitor): 90% | selectivity for dopamine D-1 receptors over D-2 receptors (dopamine D-1 receptors): 2500 fold
